Measurements taken from patent US7923231B2, “Production of glucuronic acid using myo-inositol oxygenase from cryptococcus neoformans” (Cargill, Incorporated, priority 2004, dated 2011).
Read-outs that look alike come from different tables or passages of the source.

Legend:
[1] = cited from earlier work
[2] = test system: myo-inositol oxygenase (MIO); test: Small-scale biocatalytic conversion: buffer concentration and ionic strength; format: biochemical, Cryptococcus neoformans; details: for increase in initial reaction rate and final concentration of D-glucuronic acid produced: salts concentrations higher than 0.25 M
Experimental: A small-scale protocol was used to develop the biocatalytic production of glucuronic acid from myo-inositol. Cells containing myo-inositol oxygenase were grown as described before, harvested by centrifugation and washed in 50 mM MOPS buffer at pH 7.0. The cell paste was kept frozen until use. To prepare the enzyme for the reaction, the cells were resuspended in 2 volumes of the same buffer at pH 6.5 and broken using either a French press or a MICROFLUIDICS® homogenizer (MICROFLUIDIZER® cell disruptor M-110L, available from Microfluidics, MA). Breakage was accomplished by 2 to 3 passes at 20,000 psi, and was followed visually using a microscope. The cell extract was centrifuged for 20 minutes at 15,000 rpm to remove the cell debris. Total soluble protein was measured in the clear supernatant, as described in Example 1. The cell extract was diluted to a protein concentration of 75 mg/ml and the enzyme was incubated for 1 hr on ice in the presence of ascorbic acid and ferrous ammonium sulfate at concentrations of 5 and 2 mM, respectively.
The enzyme reaction was carried out in 0.7 L reactors with temperature, pH, agitation and dissolved oxygen control. A solution of 50 g/L myo-inositol in 50 mM MOPS at pH 6.5 (200 mL) was used in the standard protocol. Temperature was controlled at 15° C. Pure air, air enriched with oxygen or pure oxygen were used to supply enough oxygen for the reaction to proceed. The air was supplied either in the headspace of the reactor or was sparged into the liquid. The formation of glucuronic acid results in a decrease in the pH of the broth. To keep the pH at the desired value, pH 6.5, the acid was neutralized with 4 N NaOH. The enzyme solution was added to reach an initial concentration of 2 g soluble protein/L. The reaction proceeded very fast immediately after the enzyme addition and the rate decayed over time. Different experiments varied the number and/or amount of enzyme additions. The progress of the reaction was followed by HPLC analysis.
Effect of buffer concentration and ionic strength. The effect of the buffer concentration was tested with the described protocol of Example 6, and included testing without any buffer, using 5 mM MOPS, and using 50 mM MOPS. No difference in the performance of the reaction was observed, either in reaction rate or in extent of reaction, as long as good pH control was provided.
Additionally, further studies on increasing the ionic strength of the broth by adding salts, using either NaCl or sodium glucuronate at 0.25 M and 0.5 M, or mixes of both, indicated better enzyme performance at higher ionic strength.

[3] = test system: myo-inositol oxygenase (MIO); test: Conversion rate additives in the myo-inositol conversion mixture; format: biochemical, Cryptococcus neoformans; details: additive in conversion mixture
From the text: Although the conversion rate increased, the final conversion percentages were similar to conversion mixtures without those same additives.

[4] = Freeze-thaw and frozen storage stability of MIO activity; details: continuous storage at −80° C. for several months
From the text: A lysed cell mixture may be added either purified or unpurified into a mixture for MIO activation. If desired, samples containing MIO may be stored prior to use. Samples containing MIO may be stored at low temperatures for short periods of time or may be frozen for longer periods of storage without significant MIO degradation. […] Additional freeze-thaw cycles, however, did reduce MIO activity.

For `N[C@@H](CS)C(=O)O` [Cysteine], the reduction potential ([1]; pH 7) is listed as −230 mV.

In the case of `O=C1O[C@H]([C@@H](O)CO)C(O)=C1O` [L-ascorbic acid], the reduction potential ([1]; 25° C.) is given as “+54 mV” and the reduction potential ([1]; 30° C.) is given as “+51.2 mV”.

For `O=S(=O)(O)CCCN1CCOCC1` [MOPS, 3-[N-morpholino]propanesulfonic acid], the “effect of buffer concentration on reaction rate and extent of reaction” value ([2]; no buffer, 5 mM and 50 mM MOPS, with good pH control) was “No difference”.

For `[Cl-].[Na+]` [NaCl], the “increase in initial reaction rate and final concentration of D-glucuronic acid produced” value [2] was about 50%.

With `O=C[C@H](O)[C@@H](O)[C@H](O)[C@H](O)C(=O)[O-].[Na+]` [sodium glucuronate, reference compound] the “inhibition of the reaction” value ([2]; high concentrations) was “Some inhibition” and the “increase in initial reaction rate and final concentration of D-glucuronic acid produced” value [2] was about 50%.

With “Bovine serum albumin: protein tested as conversion rate additive” the “effect on MIO specific activity and conversion rate” value [3] was “minimal effect”.

With Superoxide dismutase the “effect on MIO specific activity and conversion rate” value [3] was “slightly increase”.

catalase showed an improvement in conversion ([3]; after 6.5 hours) of 18%.

B1: MIO: Fe(II) containing enzyme that converts myo-inositol to D-glucuronic acid using oxygen (protein, UniProt Q9UGB7 1-285, looked up)
Inositol oxygenase: MKVTVGPDPSLVYRPDVDPEVAKDKASFRNYTSGPLLDRVFTTYKLMHTHQTVDFVRSKHAQFGGFSYKKMTVMEAVDLLDGLVDESDPDVDFPNSFHAFQTAEGIRKAHPDKDWFHLVGLLHDLGKVLALFGEPQWAVVGDTFPVGCRPQASVVFCDSTFQDNPDLQDPRYSTELGMYQPHCGLDRVLMSWGHDEYMYQVMKFNKFSLPPEAFYMIRFHSFYPWHTGRDYQQLCSQQDLAMLPWVREFNKFDLYTKCPDLPDVDKLRPYYQGLIDKYCPGILSW
In the case of B1, the “MIO activity on long-term storage” value [4] is reported as “remained stable”.
